Holding throughout (assay type): cell-based, human
In assay [1] the test system is KRIP-1-associated co-activating function on GAL4-TRIP-Br transcriptional activity. Description: GAL4-TRIP-Br/KRIP-1 luciferase reporter assay in U2OS cells. Conditions: 50 μM decoy peptide. The protocol:
DNA Transfection and Sequential β-Galactosidase/Luciferase Assay. For luciferase reporter assays, U2OS cells were cultured in 6-well dishes and transfected 24 h later with various reporter plasmids by the calcium precipitation method as previously described (Martin, K., et al. Nature 375, 691-694 (1995)). 24 h following precipitate removal, cells were exposed for 5 h to either vehicle (0.5% DMSO) or 50 μM of decoy peptide, prior to harvesting. Cells were scraped in 200 μl of lysis buffer and a single 10 μl aliquot of lysate was immediately used for sequential measurement of β-galactosidase and luciferase activity using the Dual Light System (Tropix). For protein overexpression experiments, U2OS cells were cultured in 6-well plates at a density of 1×10^5 cells/well and transfected 24 h later with Superfect reagent (QIAGEN).
FIG. 1: TRIP-Br decoy peptides antagonize KRIP-1/TRIP-Br PHD-bromodomain interactions. […] GAL4-KRIP-1 was specifically immunoprecipitated by the agarose-conjugated anti-GAL4 antibody (Lanes 3-5 & 7–10) but not by the non-specific control anti-cyclin E antibody (Lane 6); (B) Antagonism of PHD-bromodomain interactions in vivo. U2OS cells were transiently transfected with 0.4 μg of the indicated GAL4 expression constructs and 1.2 μg of pMT3A/KRIP-1, along with 0.4 μg of the minimal luciferase reporter pG5-GL3 and 0.1 μg of the control reporter pCMV/β-gal. […]
(In general: A reporter such as luciferase makes a cellular process visible.)

The test system of the next assay is cyclins and Cdks. In words: Cell cycle protein expression profile of U2OS cells released from nocodazole arrest (Western blot). To be noted: U2OS released from nocodazole block; for timing of cyclin E protein accumulation: 20 μM; for absolute levels of cyclin E protein: up to 24 h post-release. On the procedure: Cell synchronization and cell cycle progression analyses. U2OS cells in 6-well dishes were subjected to nocodazole treatment (75 ng/ml) for 22 h. Thereafter, the nocodazole-arrested cultures were released by washing with 1×PBS and grown in DMEM plus 10% FBS containing either vehicle (0.5% DMSO) or 20 μM decoy peptides. Cells were harvested at 4-h intervals for standard Western blot analyses. For the analysis of Geminin protein profile, mock- or cyclin E/Cdk2-transfected U2OS cells were exposed to nocodazole (75 ng/ml) at 3 h post-transfection for 22 h. Denaturing SDS-PAGE and western blotting. Proteins from whole cell lysate and IP complexes were separated using standard denaturing polyacrylamide gel electrophoresis as described previously (Hsu, S. I. H., et al. EMBO J 20, 2273-2285 (2001)). FIG. 7: Cell cycle protein expression profile and protein decay analysis. (A) Protein expression profile of U2OS cells released from nocodazole arrest in the absence or presence of decoy peptide treatment. Protein expression of various cyclins and Cdks was assessed by Western blotting using whole cell lysates from synchronized U2OS cells at 4, 8, 12, 16, 20 and 24 h after release. Coomassie-stained proteins served as loading controls; (B) U2OS cells transfected with vector backbone (vehicle) or pRc/cyclin E and pCMV/Cdk2 (1 μg each), were arrested at the G2/M boundary by exposure to nocodazole (75 ng/ml) and then released to re-enter the cell cycle. Protein expression of cyclin E and Geminin was assessed using whole cell lysates from synchronized U2OS cells at 0, 4, 8, 12, 16 and 20 h after release; (C) Protein decay analysis of Geminin expression in the absence or presence of cyclin E/Cdk2 over-expression (left panel) or in the absence or presence of decoy peptide treatment (right panel) by Western blotting (WB). Coomassie stained proteins served as the loading control (C).

In a further assay the test system is Geminin. Description: Protein decay analysis of Geminin in U2OS cells (cycloheximide). Conditions: for Geminin steady state levels at 5-h post-CHX treatment: cycloheximide; for Geminin protein decay kinetics: cycloheximide 20 μg/ml, 0-5 h. On the procedure: Protein decay analysis. Transfected or peptide-treated cells were exposed to 20 μg/ml cycloheximide (CHX). Whole cell lysates were prepared from the treated cells at 0, 1, 2, 3, 4 or 5-h post-CHX treatment for Western blot analysis. FIG. 7: Cell cycle protein expression profile and protein decay analysis. (A) Protein expression profile of U2OS cells released from nocodazole arrest in the absence or presence of decoy peptide treatment. Protein expression of various cyclins and Cdks was assessed by Western blotting using whole cell lysates from synchronized U2OS cells at 4, 8, 12, 16, 20 and 24 h after release. Coomassie-stained proteins served as loading controls; (B) U2OS cells transfected with vector backbone (vehicle) or pRc/cyclin E and pCMV/Cdk2 (1 μg each), were arrested at the G2/M boundary by exposure to nocodazole (75 ng/ml) and then released to re-enter the cell cycle. Protein expression of cyclin E and Geminin was assessed using whole cell lysates from synchronized U2OS cells at 0, 4, 8, 12, 16 and 20 h after release; (C) Protein decay analysis of Geminin expression in the absence or presence of cyclin E/Cdk2 over-expression (left panel) or in the absence or presence of decoy peptide treatment (right panel) by Western blotting (WB). Coomassie stained proteins served as the loading control (C).

Where no end group is shown, it is not given here.

For “ERQIKIWFQNRRMKWKKTGFLTDLTLDDILFADID (ERQIKIWFQNRRMKWKKTGFLTDLTLDDILFADID-NH2) [*Br2]”, in assay [1], the “KRIP-1-associated co-activating function on GAL4-TRIP-Br transcriptional activity” value was “complete abolishment”. Also, in the assay with cyclins and Cdks, the “timing of cyclin E protein accumulation” value is given as “premature accumulation of cyclin E beginning in early G1”; the “absolute levels of cyclin E protein” value was “dramatically up-regulated and sustained at high levels”. In addition, in the assay with Geminin, the “Geminin steady state levels at 5-h post-CHX treatment” value is “remained persistently high” and the “Geminin protein decay kinetics” value was “significantly slower decay rate”.

In the case of “ERQIKIWFQNRRMKWKKGLDEDGLLLFCEGDTIAD (Peptide containing penetratin sequence from Drosophila and random peptide sequence) [*SCR, reference compound]”, the “timing of cyclin E protein accumulation” value in the assay with cyclins and Cdks is “accumulated during mid-to-late G1 between 8 h and 16 h post-release”.

As for “ERQIKIWFQNRRMKWKKATGCLLDDGLEGLFEDID (ERQIKIWFQNRRMKWKKATGCLLDDGLEGLFEDID-NH2) [*Br1]”, the “KRIP-1-associated co-activating function on GAL4-TRIP-Br transcriptional activity” value in assay [1] is listed as “complete abolishment”. Further, in the assay on cyclins and Cdks, the “timing of cyclin E protein accumulation” value is “premature accumulation of cyclin E beginning in early G1”; the “absolute levels of cyclin E protein” value was “dramatically up-regulated and sustained at high levels”. Moreover, in the assay on Geminin, the “Geminin steady state levels at 5-h post-CHX treatment” value is listed as “remained persistently high” and the “Geminin protein decay kinetics” value is recorded as “significantly slower decay rate”.

The values above are taken from US7223733B2, “Modulation of TRIP-Br function and method of treating proliferative disorders” (National University of Singapore, priority 2004, dated 2007).
